Experimental data taken from ChEMBL document CHEMBL2034921, “5-(5-(6-[(11)C]methyl-3,6-diazabicyclo[3.2.0]heptan-3-yl)pyridin-2-yl)-1H-indole as a potential PET radioligand for imaging cerebral α7-nAChR in mice” (Bioorg Med Chem, 2012).

How the values were obtained:
Type in all cases: ADME, organism-based
Hippocampus [1] = assay: Biodistribution in CD1 mouse hippocampus at 0.1 mCi, iv at 30 mins by gamma counting; details: in vivo, 0.5 h
Mus musculus [2] = assay: Biodistribution in CD1 mouse frontal cortex at 3.7 MBq, iv after 90 mins in presence of 0.5 mg/kg, sc of PHA543613; set-up: dose 0.5 mg/kg, route intravenous; details: in vivo, 1.5 h
Mus musculus [3] = assay: Biodistribution in CD1 mouse frontal cortex at 0.1 mCi, iv at 30 mins by gamma counting; details: in vivo, 0.5 h
Thalamus = assay: Biodistribution in CD1 mouse thalamus at 0.1 mCi, iv at 30 mins by gamma counting; details: in vivo, 0.5 h
Striatum = assay: Biodistribution in CD1 mouse striatum at 0.1 mCi, iv at 30 mins by gamma counting; details: in vivo, 0.5 h
Hippocampus [4] = assay: Biodistribution in CD1 mouse hippocampus at 3.7 MBq, iv after 90 mins in presence of 0.5 mg/kg, sc of PHA543613; set-up: dose 0.5 mg/kg, route intravenous; details: in vivo, 1.5 h

## [11CH3]N1CC2CN(c3ccc(-c4ccc5[nH]ccc5c4)nc3)CC21 (racemic)
Hippocampus [1]
  Drug uptake: Active
Mus musculus [2]
  Drug uptake: Not Active
Mus musculus [3]
  Drug uptake: Active
Thalamus
  Drug uptake: Active
Striatum
  Drug uptake: Active
Hippocampus [4]
  Drug uptake: Not Active
